Results as given in patent publication US10377718B2, “Apelin receptor (APJ) agonists and uses thereof” (Research Triangle Institute, priority 2014, dated 2019).

Assays:
apelin receptor (APJ) = biological target: T1, apelin receptor (APJ) (Homo sapiens, UniProt P35414); assay: in vitro apelin agonist activity (methods of Giddings et al., Apelin-13 as positive control); type: cell-based; conditions: apelin agonist activity, Giddings et al. method; read-out: agonist activity (EC50)
T1 sequence (P35414 1-380): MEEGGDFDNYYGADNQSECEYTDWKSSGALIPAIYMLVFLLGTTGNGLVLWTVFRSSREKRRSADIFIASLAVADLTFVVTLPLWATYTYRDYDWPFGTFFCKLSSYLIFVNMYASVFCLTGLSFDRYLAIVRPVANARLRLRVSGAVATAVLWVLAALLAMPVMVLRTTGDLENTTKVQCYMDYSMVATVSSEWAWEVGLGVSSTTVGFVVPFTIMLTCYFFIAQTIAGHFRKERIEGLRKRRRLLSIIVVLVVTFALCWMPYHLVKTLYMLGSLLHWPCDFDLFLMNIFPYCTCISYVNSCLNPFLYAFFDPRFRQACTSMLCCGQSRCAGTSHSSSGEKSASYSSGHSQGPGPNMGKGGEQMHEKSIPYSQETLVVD
Excerpt: The compounds above were studied for their in vitro activity as apelin agonists using the methods described by Giddings et al. Giddings et al., 2010 Int J High Thro Screen. 1:39-47, the contents of which are hereby incorporated by reference in its entirety.

C57BL/6 mice = assay: in vivo blood pressure lowering activity, non-invasive blood pressure and heart rate after IP injection; design: Systolic Baseline / Diastolic Baseline: unit not given here; conditions: for Diastolic Baseline / HR Baseline / Mean pressure Baseline / Systolic Baseline: baseline before dosing; for Diastolic % change / HR % change / Mean pressure % change / Systolic % change: postdose vs baseline; for HR Postdose: in bpm (unit assumed); for Diastolic Postdose / Mean pressure Postdose / Systolic Postdose: in mmHg (unit assumed)
Experimental: The compounds were also assayed for blood pressure activity using C57BL/6 mice and the procedure described by Tatemoto et al. The novel peptide apelin lowers blood pressure via a nitric oxide-dependent mechanism. Regul Pept. 2001; 99: 87-92. […] Studies have been published citing reductions in blood pressure occur following peptide apelin administration. Apelin-13 was used as a positive control. Knockout C57BL/6 mice lacking APJ have cardiovascular deficiencies. […] Charo et al. Am J Physiol Heart Circ Physiol. 2009 November 297(5):[…] et al. J Physiol Biochem. 2007 December; 63(4):359-73. Blood pressure measurements in these species of mice have been reported in the literature. […] et al. Am J Physiol Heart Circ Physiol. 2003 February; 284(2):[…]-74. On the first day of the study, 11 animals were treated with apelin-13, 11 with vehicle alone, and 11 as sham controls. The two later groups were used to determine effects (if any) of the vehicle or injection alone on blood pressure (BP). The experiment was conducted as follows: The animals were restrained and a baseline measurement taken for 5 min. Animals were injected and immediately monitored for 15 minutes. The effect of test agents should be apparent within this time. Tatemoto et al. reported that the effects of Apelin-13 were apparent within minutes. Tatemoto et al. 2001 Immediately following dosing, blood pressure (diastolic, systolic and mean pressure) and heart rate for each animal was recorded for up to 15 minutes using a Kent Scientific CODA Non-Invasive Blood Pressure System. […] On day 2-5 a similar protocol was used in increasing doses. The animals were randomized daily in three groups of 11 to receive either of the two experimental compounds by IP injection. […] At the end of the 5-day dosing period, all animals were humanely euthanized. [table]

## CCCCNC(=O)C[C@H](CC(C)C)NC(=O)c1cc(-c2c(OC)cccc2OC)n(CC(C)C)n1 [compound 143, (S)-N-(1-(Butylamino)-5-methyl-1-oxohexan-3-yl)-5-(2,6-dimethoxyphenyl)-1-isobutyl-1H-pyrazole-3-carboxamide]
Apelin receptor (APJ)
  EC50: < 10 µM
C57BL/6 mice; Day 2, 1 mg/kg IP
  Diastolic Baseline: 127
  HR Baseline: 706
  Mean pressure Baseline: 138
  Systolic Baseline: 161
  Diastolic % change: 1%
  HR % change: 3%
  Mean pressure % change: 0%
  Systolic % change: −1%
  HR Postdose: 727
  Diastolic Postdose: 129
  Mean pressure Postdose: 139
  Systolic Postdose: 160
C57BL/6 mice; Day 3, 3 mg/kg IP
  Diastolic Baseline: 132
  HR Baseline: 665
  Mean pressure Baseline: 142
  Systolic Baseline: 163
  Diastolic % change: −4%
  HR % change: 15%
  Mean pressure % change: −4%
  Systolic % change: −3%
  HR Postdose: 763
  Diastolic Postdose: 127
  Mean pressure Postdose: 137
  Systolic Postdose: 158
C57BL/6 mice; Day 4, 10 mg/Kg IP
  Diastolic Baseline: 131.3
  HR Baseline: 669.3
  Mean pressure Baseline: 143
  Systolic Baseline: 167.5
  Diastolic % change: −5%
  HR % change: 11%
  Mean pressure % change: −6%
  Systolic % change: −6%
  HR Postdose: 745
  Diastolic Postdose: 124.2
  Mean pressure Postdose: 134.8
  Systolic Postdose: 157.1
C57BL/6 mice; Day 5, 30 mg/Kg IP
  Diastolic Baseline: 130
  HR Baseline: 733.9
  Mean pressure Baseline: 141
  Systolic Baseline: 164.1
  Diastolic % change: −9%
  HR % change: −2%
  Mean pressure % change: −9%
  Systolic % change: −8%
  HR Postdose: 722.8
  Diastolic Postdose: 118.8
  Mean pressure Postdose: 128.9
  Systolic Postdose: 150.2

## COc1cccc(OC)c1-c1cc(C(=O)N[C@H](CC(=O)NC2CCC2)CC(C)C)nn1CC(C)C [compound 173]
Apelin receptor (APJ)
  EC50: < 10 µM
C57BL/6 mice; Day 2, 1 mg/kg IP
  Diastolic Baseline: 114
  HR Baseline: 681
  Mean pressure Baseline: 126
  Systolic Baseline: 151
  Diastolic % change: 3%
  HR % change: 5%
  Mean pressure % change: 1%
  Systolic % change: −1%
  HR Postdose: 716
  Diastolic Postdose: 118
  Mean pressure Postdose: 128
  Systolic Postdose: 149
C57BL/6 mice; Day 3, 3 mg/kg IP
  Diastolic Baseline: 127
  HR Baseline: 661
  Mean pressure Baseline: 136
  Systolic Baseline: 156
  Diastolic % change: 2%
  HR % change: 12%
  Mean pressure % change: 2%
  Systolic % change: 2%
  HR Postdose: 738
  Diastolic Postdose: 129
  Mean pressure Postdose: 139
  Systolic Postdose: 159
C57BL/6 mice; Day 4, 10 mg/Kg IP
  Diastolic Baseline: 114.9
  HR Baseline: 682.5
  Mean pressure Baseline: 126.3
  Systolic Baseline: 150.5
  Diastolic % change: 4%
  HR % change: 10%
  Mean pressure % change: 2%
  Systolic % change: 0%
  HR Postdose: 749.4
  Diastolic Postdose: 119.3
  Mean pressure Postdose: 129.2
  Systolic Postdose: 150
C57BL/6 mice; Day 5, 30 mg/Kg IP
  Diastolic Baseline: 122.2
  HR Baseline: 701.1
  Mean pressure Baseline: 133
  Systolic Baseline: 155.7
  Diastolic % change: −4%
  HR % change: 3%
  Mean pressure % change: −4%
  Systolic % change: −5%
  HR Postdose: 721.7
  Diastolic Postdose: 117.5
  Mean pressure Postdose: 127.4
  Systolic Postdose: 148.2
